Test results from patent publication US4749702A, “Antidepressive substituted N-[(4-piperidinyl)alkyl] bicyclic condensed oxazol- and thiazolamines” (Janssen Pharmaceutica N. V., priority 1987, dated 1988).

Each molecule was assayed on Loss in righting reflex induced by xylazine (assay: Loss of righting reflex test (xylazine antagonism)). Conditions: female Wistar rats 220-270 g; test compound 60 min before observation; xylazine 20 mg/kg i.p. 30 min later; route of test compound not given.
Format: in vivo, Female Wistar strain rats
Procedure: Loss of righting reflex test Female Wistar strain rats weighing 220-270 g were used throughout the test. Sixty minutes before observations were made, the rats were treated with a test compound or with a saline solution. Thirty minutes later, all animals received an intraperitoneal injection of 20 mg/kg body weight of xylazine. […] The degree of which the righting reflex was compromised, was scored 0-3 depending on the animal's response to it being put gently on its back on a flat surface. Score 3: complete loss of righting reflexes; score 2: some righting movements occur, but these fail to result in a 180° turn of the body; score 1: righting movements do result in a 180° turn of the body, but the process takes noticeably more time than it does in normal animals; score 0: righting is effected with a speed similar to that of normal rats.

Row | SMILES | Loss in righting reflex induced by xylazine ED50-values (dose producing loss of righting reflex scores <3 in 50% of the tested animals)
1 | c1ccc2c(c1)OCC(CN1CCC(CNc3nc4cccnc4s3)CC1)O2 (stereo not drawn) [Compound 8, N-[[1-[(2,3-dihydro-1,4-benzodioxin-2-yl)methyl]-4-piperidinyl]methyl]thiazolo[5,4-b]pyridin-2-amine] | 0.08 mg/kg
2 | c1ccc2c(c1)OC[C@H](CN1CCC(CNc3nc4cccnc4s3)CC1)O2 [Compound 13, (-)-(S)-N-[[1[(2,3-dihydro-1,4-benzodioxin-2-yl)methyl]-4-piperidinyl]methyl]thiazolo[5,4-b]pyridin-2-amine] | 0.08 mg/kg
3 | Fc1ccc2nc(NCC3CCN(CC4COc5ccccc5O4)CC3)sc2c1 (stereo not drawn) [Compound 19, N-[[1-[(2,3-dihydro-1,4-benzodioxin-2-yl)methyl]-4-piperidinyl]methyl]-6-fluoro-2-benzothiazolamine] | 0.31 mg/kg
4 | Fc1cccc2sc(NCC3CCN(CC4COc5ccccc5O4)CC3)nc12 (stereo not drawn) [Compound 20, N-[[1-[(2,3-dihydro-1,4-benzodioxin-2-yl)methyl]-4-piperidinyl]methyl]-4-fluoro-2-benzothiazolamine] | 0.066 mg/kg
5 | Cc1ccc2nc(NCC3CCN(CC4COc5ccccc5O4)CC3)sc2c1 (stereo not drawn) [Compound 21, N-[[1-[(2,3-dihydro-1,4-benzodioxin-2-yl)methyl]-4-piperidinyl]methyl]-6-methyl-2-benzothiazolamine] | 0.14 mg/kg
6 | COc1cc2nc(NCC3CCN(CC4COc5ccccc5O4)CC3)sc2c(OC)c1OC (stereo not drawn) [Compound 26, N-[[1-[(2,3-dihydro-1,4-benzodioxin-2-yl)methyl]-4-piperidinyl]methyl]-5,6,7-trimethoxy-2-benzothiazolamine (E)-2-butenedioate(2:3)] | 0.08 mg/kg
7 | COc1cc2nc(NCC3CCN(CC4COc5ccccc5O4)CC3)sc2cc1OC (stereo not drawn) [Compound 27, N-[[1-[(2,3-dihydro-1,4-benzodioxin-2-yl)methyl]-4-piperidinyl]methyl]-5,6-dimethoxy-2-benzothiazolamine] | 0.16 mg/kg
8 | c1ccc2c(c1)OCC(CN1CCC(CNc3nc4cc5c(cc4s3)OCO5)CC1)O2 (stereo not drawn) [Compound 28, N-[[1-[(2,3-dihydro-1,4-benzodioxin-2-yl)methyl]-4-piperidinyl]methyl]-1,3-dioxolo[4,5-f]benzothiazol-6-amine] | 0.31 mg/kg
9 | c1ccc2c(c1)OCC(CN1CCC(CCNc3nc4ccccc4s3)CC1)O2 (stereo not drawn) [Compound 30, N-[2-[1[(2,3-dihydro-1,4-benzodioxin-2-yl)methyl]-4-piperidinyl]ethyl]-2-benzothiazolamine] | 0.31 mg/kg
10 | COc1cc(OC)c2sc(NCC3CCN(C[C@H]4COc5ccccc5O4)CC3)nc2c1 [Compound 34] | 0.31 mg/kg
11 | COc1cc2nc(NCC3CCN(CC4CCc5ccccc5O4)CC3)sc2cc1OC (stereo not drawn) [Compound 35] | 0.31 mg/kg
12 | Cl.Cl.c1ccc2c(c1)OCC(CN1CCC(CNc3nc4ccccc4o3)CC1)O2 (stereo not drawn) [Compound 42, N-[[1-[(2,3-dihydro-1,4-benzodioxin-2-yl)methyl]-4-piperidinyl]methyl]-2-benzoxazolamine dihydrochloride] | 0.31 mg/kg
13 | Cl.Cl.Oc1ccc2nc(NCC3CCN(CC4COc5ccccc5O4)CC3)sc2c1 (stereo not drawn) [Compound 57, 2-[[[1-[(2,3-dihydro-1,4-benzodioxin-2-yl)methyl]-4-piperidinyl]methyl]amino]-6-benzothiazolol dihydrochloride] | 0.31 mg/kg
14 | c1ccc2c(c1)OCC(CN1CCC(CNc3nc4cnccc4s3)CC1)O2 (stereo not drawn) [Compound 58, N-[[1-[(2,3-dihydro-1,4-benzodioxin-2-yl)methyl]-4-piperidinyl]methyl]thiazolo[4,5-c]pyridin-2-amine] | 0.080 mg/kg
15 | COc1ccc2nc(NCC3CCN(CC4COc5ccccc5O4)CC3)sc2c1 (stereo not drawn) [Compound 68, N-[[1-[(2,3-dihydro-1,4-benzodioxin-2-yl)methyl]-4-piperidinyl]methyl]-6-methoxy-2-benzothiazolamine] | 0.16 mg/kg
